# Laboratory results from ChEMBL document CHEMBL1127105, “Adenosine-2-monophosphate derivatives: Structural requirements as substrates for inositol monophosphatase” (Bioorg Med Chem Lett, 1993).
# What was measured:
# [1] = target: T1, Inositol monophosphatase 1 (Bos taurus) (UniProt P20456); assay: Activity against the bovine inositol monophosphatase was determined by rate of release of inorganic phosphate at 1 mM substrate concentration, 1 mM of inositol-1-phosphate (1).
# T1 sequence (whole entry): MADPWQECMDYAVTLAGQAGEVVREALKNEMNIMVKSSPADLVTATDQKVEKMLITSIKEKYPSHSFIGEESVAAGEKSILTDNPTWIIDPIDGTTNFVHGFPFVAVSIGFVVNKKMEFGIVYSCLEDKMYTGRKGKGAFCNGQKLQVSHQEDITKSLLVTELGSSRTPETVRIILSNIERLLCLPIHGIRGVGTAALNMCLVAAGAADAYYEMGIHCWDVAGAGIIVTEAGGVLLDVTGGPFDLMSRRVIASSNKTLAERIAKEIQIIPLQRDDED
# [2] = target: T2, Inositol monophosphatase 1 (Bos taurus, UniProt P20456); assay: Tested for the inhibitory activity against bovine inositol monophosphatase by measuring concentration inhibiting the production of [14C]inositol from racemic inositol monophosphate (1) containing [14C]-1
# T2 sequence (P20456 whole entry): T1 sequence (whole entry)
SMILES,Activity [1],IC50 [2] [µM]
O=P(O)(O)[C@H]1CC[C@H](O)C[C@H]1O,,7
O=P(O)(O)O[C@H]1CC[C@H](CO)[C@H]1O,< 0.05,2100
O=P(O)(O)O[C@H]1CCC[C@H]1O,,5000
O=P(O)(O)O[C@H]1CC[C@@H](CO)[C@H]1O,< 0.05,310
O=P(O)(O)O[C@H]1COC[C@H]1O,0.53,3600

# Now from value to compound:
Activity [1],IC50 [2] [µM],SMILES
0.53,1800,O=P(O)(O)O[C@@H]1CO[C@@H](CO)[C@@H]1O
0.48,1300,Nc1ncnc2c1ncn2[C@@H]1O[C@H](CO)[C@@H](O)[C@H]1OP(=O)(O)O
0.65,2900,O=P(O)(O)O[C@H]1CO[C@H](CO)[C@H]1O
